Measurements as given in US6864256B2, “Methods for the control of insect pests” (Tria Specialty Products, LLC, priority 2002, dated 2005).
“And” between values parts separate entries of the source, which are not always exact repeats. Identical values can stand only once. Like-named read-outs stand apart in the source and are kept apart here. Marks after values point to notes of the source that are not given here.

How the values were obtained:
[1] = tested on: dung-breeding flies; conditions: cattle, cited from earlier work
[2] = Tolerability of daily oral cyromazine in horses; type: in vivo, horse; conditions: 600 mg daily oral by top-dressing feed
Procedure: (§1) Cyromazine (2-cycloproplyamino-4,6-diamino-s-triazine) was obtained as a purified chemical composition at greater than 98% cyromazine (technical cyromazine). 600 mg of cyromazine was orally administered to each horse daily by top-dressing horse feed, for a continuous daily administration during fly season. In this example, horses residing in North Carolina, U.S. were treated during the local fly season, lasting approximately March through October of the calendar year.
(§2) In one study, cyromazine administration was stopped, and 5 manure samples were obtained from the same horse at 24, 48, 72, 96 and 120 hours post-dosing to monitor the duration of cyromazine at an insecticidal amount in the feces. In another study, single manure samples were collected from each individual horse (n=4) <24 hours after dosing with cyromazine, i.e., before another daily dose was given. Untreated control horse manure was collected from a nearby horse ranch. Samples were shipped and kept in the refrigerator until the house fly bioassay was set-up.

[3] = in vivo; cited from earlier work
[4] = tested on: Musca domestica (Hilmer Strain) eggs; test: House fly bioassay: larval hatch from 50 eggs; type: in vivo; conditions: for Larval Hatch/50 Eggs, Rep 1-4: scored after 2 days
Procedure: as §1, §2
Approximately fifty (50) Musca domestica (Hilmer Strain) eggs <24 hours old were counted and placed on filter paper discs in each of four replicates (rep) per cyromazine treatment group or control. Each replicate was covered with a paper towel and placed in the environmental chamber at 80° F. (27° C.), 80% relative humidity and a 14:10 (light:dark) photoperiod. The eggs were scored for larval hatch after two days and a layer of wood shavings added as a moisture barrier and a dry substrate for pupation.
(§3) The percent larval hatch, adult fly emergence and corrected percent effect were calculated and recorded. The percentage of eggs hatching is calculated as the mean number of eggs hatched after 2 days per test divided by 50 (the total eggs input), and multiplied by 100. The percentage of adult fly emergence from larvae hatched (% larvae emerging as flies) is calculated as the mean number of adult flies emerging after 3 weeks per test divided by the mean number of larvae hatching on test day 2, and multiplied by 100. The percentage of larvae not developing is calculated as the mean number of larvae not developing per test divided by the mean number of larvae hatching on test day 2, and multiplied by 100. Thus, the data in Table 2 refers back to the data in Table 1, and the data in Table 4 refers back to the data in Table 3.

[5] = tested on: Musca domestica (Hilmer Strain) larvae; test: House fly bioassay: adult fly emergence from larvae exposed to feces of cyromazine-treated horses; type: in vivo; conditions: for Adult Fly Emergence from Larvae Hatched, Rep 1-4: 600 mg/day oral, after 3 weeks
Procedure: as §1, §2
The replicates containing hatched larvae were then returned to the environmental chamber in the presence of the test feces samples to determine the insecticidal effect of the cyromazine in the feces. Adult house fly emergence from larvae was determined after 3 weeks.
as §3

[6] = tested on: house fly; conditions: feed-through to fattening porkers, traditional pens with straw bedding; cited from earlier work
[7] = tested on: house flies; conditions: added to the feed of mink; cited from earlier work
[8] = tested on: immature stages of flies; conditions: dairy calves, outdoor hutches, dose per body weight; cited from earlier work
[9] = horse Barney, <24 hours post-dosing group
[10] = horse Fancy, <24 hours post-dosing group
[11] = horse Phalete, <24 hours post-dosing group
[12] = horse Precious, <24 hours post-dosing group
[13] = same horse, 600 mg/day oral, 24 hours post-dosing group
[14] = same horse, 600 mg/day oral, 48 hours post-dosing group
[15] = same horse, 600 mg/day oral, 72 hours post-dosing group
[16] = same horse, 600 mg/day oral, 96 hours post-dosing group
[17] = same horse, 600 mg/day oral, 120 hours post-dosing group
[18] = 120 hour sample (4 reps), first study
[19] = feces of horse Barney, <24 hours post-dosing
[20] = feces of horse Fancy, <24 hours post-dosing
[21] = feces of horse Phalete, <24 hours post-dosing
[22] = feces of horse Precious, <24 hours post-dosing
[23] = horse feces 24 hours post-dosing
[24] = horse feces 48 hours post-dosing
[25] = horse feces 72 hours post-dosing
[26] = horse feces 96 hours post-dosing
[27] = horse feces 120 hours post-dosing

SMILES: COC(C)(C)CCC[C@H](C)C/C=C/C(C)=C/C(=O)OC(C)C (racemic) [methoprene]
- inhibition of development in manure ([1]; drinking water): Complete inhibition of development in manure
- inhibition of development in manure ([1]; mineral blocks): Complete inhibition of development in manure

SMILES: Nc1nc(N)nc(NC2CC2)n1 [cyromazine, 2-cyclopropylamino-4,6-diamino-s-triazine]
- tolerability, side effects [2]: well tolerated at this dosage, and no side effects were seen
- share of all cyromazine excreted found in urine [3]: 95%
- Larval Hatch/50 Eggs, Rep 1-4 ([4]; horse Barney, 600 mg/day oral, <24 hours post-dosing group): 25 and 33 and 43 and 32
- % Eggs Hatching [4, 9]: 66.5%
- Larval Hatch/50 Eggs, Mean [4, 9]: 33.25
- Larval Hatch/50 Eggs, Σ [4, 9]: 133
- Larval Hatch/50 Eggs, Rep 1-4 ([4]; horse Fancy, 600 mg/day oral, <24 hours post-dosing group): 47 and 33 and 32 and 35
- % Eggs Hatching [4, 10]: 73.5%
- Larval Hatch/50 Eggs, Mean [4, 10]: 36.75
- Larval Hatch/50 Eggs, Σ [4, 10]: 147
- % Eggs Hatching [4, 11]: 83.5%
- Larval Hatch/50 Eggs, Mean [4, 11]: 41.75
- Larval Hatch/50 Eggs, Σ ([4]; horse Phalete, <24 hours post-dosing group, sum decreased by 7 (footnote)): 167*
- Larval Hatch/50 Eggs, Rep 1-4 ([4]; horse Precious, 600 mg/day oral, <24 hours post-dosing group): 49 and 37 and 44
- % Eggs Hatching [4, 12]: 89.5%
- Larval Hatch/50 Eggs, Mean [4, 12]: 44.75
- Larval Hatch/50 Eggs, Σ [4, 12]: 179
- % Eggs Hatching [4, 13]: 82.5%
- Larval Hatch/50 Eggs, Mean [4, 13]: 41.25
- Larval Hatch/50 Eggs, Σ [4, 13]: 165
- Larval Hatch/50 Eggs, Rep 1-4 [4, 13]: 40 and 35 and 42 and 48
- % Eggs Hatching [4, 14]: 57.5%
- Larval Hatch/50 Eggs, Mean [4, 14]: 28.75
- Larval Hatch/50 Eggs, Σ [4, 14]: 115
- Larval Hatch/50 Eggs, Rep 1-4 [4, 14]: 31 and 21 and 30 and 33
- % Eggs Hatching [4, 15]: 50.5%
- Larval Hatch/50 Eggs, Mean [4, 15]: 25.25
- Larval Hatch/50 Eggs, Σ [4, 15]: 101
- Larval Hatch/50 Eggs, Rep 1-4 [4, 15]: 27 and 35 and 18 and 21
- % Eggs Hatching [4, 16]: 75.0%
- Larval Hatch/50 Eggs, Mean [4, 16]: 37.50
- Larval Hatch/50 Eggs, Σ [4, 16]: 150
- Larval Hatch/50 Eggs, Rep 1-4 [4, 16]: 40 and 38 and 34
- % Eggs Hatching [4, 17]: 61.0%
- Larval Hatch/50 Eggs, Mean [4, 17]: 30.50
- Larval Hatch/50 Eggs, Σ [4, 17]: 122
- Larval Hatch/50 Eggs, Rep 1-4 [4, 17]: 38 and 25 and 31 and 28
- flies emerged [5, 18]: 1
- flies emerged, percent [5, 18]: 0.2%
- insecticidal amount in the feces ([5]; feces obtained at 24, 48, 72, 96 and 120 hours post-dosing): An insecticidal amount of cyromazine was present in the feces
- Adult Fly Emergence from Larvae Hatched, Rep 1-4 [5, 19]: 0
- # Larvae not Developing [5, 19]: 133
- % Larvae Emerging as Flies [5, 19]: 0%
- % Larvae not Developing [5, 19]: 100.0%
- Adult Fly Emergence from Larvae Hatched, Σ [5, 19]: 0
- Adult Fly Emergence from Larvae Hatched, Rep 1-4 [5, 20]: 0
- # Larvae not Developing [5, 20]: 147
- % Larvae Emerging as Flies [5, 20]: 0%
- % Larvae not Developing [5, 20]: 100.0%
- Adult Fly Emergence from Larvae Hatched, Σ [5, 20]: 0
- Adult Fly Emergence from Larvae Hatched, Rep 1-4 [5, 21]: 0
- # Larvae not Developing [5, 21]: 167
- % Larvae Emerging as Flies [5, 21]: 0%
- % Larvae not Developing [5, 21]: 100.0%
- Adult Fly Emergence from Larvae Hatched, Σ [5, 21]: 0
- Adult Fly Emergence from Larvae Hatched, Rep 1-4 [5, 22]: 0
- # Larvae not Developing [5, 22]: 179
- % Larvae Emerging as Flies [5, 22]: 0%
- % Larvae not Developing [5, 22]: 100.0%
- Adult Fly Emergence from Larvae Hatched, Σ [5, 22]: 0
- adult fly emergence from hatched larvae ([5]; first study, same horse sampled at 5 time points): completely inhibited adult fly emergence
- # Larvae not Developing [5, 23]: 165
- % Larvae Emerging as Flies [5, 23]: 0%
- % Larvae not Developing [5, 23]: 100.0%
- Adult Fly Emergence from Larvae Hatched, Σ [5, 23]: 0
- Adult Fly Emergence from Larvae Hatched, Rep 1-4 [5, 23]: 0
- # Larvae not Developing [5, 24]: 115
- % Larvae Emerging as Flies [5, 24]: 0%
- % Larvae not Developing [5, 24]: 100.0%
- Adult Fly Emergence from Larvae Hatched, Σ [5, 24]: 0
- Adult Fly Emergence from Larvae Hatched, Rep 1-4 [5, 24]: 0
- # Larvae not Developing [5, 25]: 101
- % Larvae Emerging as Flies [5, 25]: 0%
- % Larvae not Developing [5, 25]: 100.0%
- Adult Fly Emergence from Larvae Hatched, Σ [5, 25]: 0
- Adult Fly Emergence from Larvae Hatched, Rep 1-4 [5, 25]: 0
- # Larvae not Developing [5, 26]: 150
- % Larvae Emerging as Flies [5, 26]: 0%
- % Larvae not Developing [5, 26]: 100.0%
- Adult Fly Emergence from Larvae Hatched, Σ [5, 26]: 0
- Adult Fly Emergence from Larvae Hatched, Rep 1-4 [5, 26]: 0
- # Larvae not Developing [5, 27]: 121
- % Larvae Emerging as Flies [5, 27]: 0.8%
- % Larvae not Developing [5, 27]: 99.8%
- Adult Fly Emergence from Larvae Hatched, Σ [5, 27]: 1
- insecticidal activity of manure samples ([5]; horses orally administered cyromazine, feces without urine): high degree of insecticidal activity
- inhibition of house fly development ([5]; second study, all 4 horses, <24 hours post-dosing): 100%
- adult fly development [6]: some adult flies did develop
- prevention of breeding of house flies [7]: ineffective
- doses preventing development of immature stages of flies in straw bedding [8]: 0.5 to 1.0 mg/kg
